# Where no end group is shown, it is not given here.
# What was measured:
# [1] = system: proglucagon gene expression; test: Relative proglucagon gene expression in organoids (qPCR); format: cell-based, mouse; conditions: 10 min, Phe 20 mM, 2^-ΔΔCt normalised to β-actin, versus control
# Method: (§1) For RNA isolation, frozen STC-1 cells or organoids were homogenized in QIAzol, and total RNA was isolated using the miRNeasy Mini Kit (Qiagen, Hilden, Germany). Total RNA was quantified in a NanoDrop 2000 spectrophotometer (Thermo Scientific, MA, USA). According to the instructions, total RNA was reverse transcribed to cDNA using a Script II RT Kit (Qiagen, Hilden, Germany). RNA expression levels were determined in duplicate by quantitative real-time PCR (qPCR) on a 7900HT Real-Time PCR System (Applied Biosystems), using miScript SYBR Green PCR Kits (Qiagen, Hilden, Germany).
# (§2) Amplification was initiated at 50 °C for 2 min and at 95 °C for 10 min, followed by 40 cycles of 95 °C for 15 s and 60 °C for 1 min. The following specific oligonucleotides were used: for cholecystokinin (CCK) forward (F) 5′-[…]-3′ and reverse (R) 5′-[…]-3′; for GLP-1 (F) 5′-[…]-3′ and (R) 5′-[…]-3′; for peptide YY (PYY) (F) 5′-[…]-3′ and (R) 5′-[…]-3′; and for reference gene β-actin (F) 5′-[…]-3′ and (R) 5′-[…]-3′. The relative expression levels of the target gene were calculated using the comparative critical threshold method (2^–ΔΔCt), by normalizing the data to the expression of β-actin.
# p-IRS = test: Immunoblotting p-IRS/IRS in STC-1 cells; format: cell-based; conditions: peptide 1 mM, EWD 2 mg/mL, Phe 20 mM, 5, 15, 30, 60 min, immunoblot
# Method: […]; then, cells were lysed with RIPA buffer, and ERK1/2, p-ERK1/2, AMPK, p-AMPK, p-IRS-1, IRS-1, glyceraldehyde-3-phosphate dehydrogenase (GAPDH), and heat shock protein (HSP90) contents were examined using immunoblotting. Protein samples were lysed, separated on 10% SDS-polyacrylamide gels, and the separated proteins were electroblotted from the gel onto nitrocellulose membranes ([…], Millipore, MA, USA) and blocked with skim milk for 30 min at room temperature. Membranes were incubated with primary antibodies overnight at 4 °C. After incubation, membranes were exposed to secondary antibodies for 45 min at room temperature. Blots were rinsed three times with Tris-buffered saline with Tween 20, pH 8.0, after each incubation step and visualized using an Odyssey infrared imaging system (LI-COR, Lincoln, NE, USA).
# PYY gene expression [2] = test: Relative PYY gene expression in STC-1 cells (qPCR); format: cell-based; conditions: 60 min, Phe 20 mM
# Method: (§3) Cells were cultured at 37 °C, 5% CO2, and a humidified atmosphere for 48 h into 24-well plates at a density of 3 × 10^5 cells per well.
# as §1, §2
# STC-1 cells [3] = test: GLP-1 secretion in STC-1 cells (GLP-1 Active ELISA of supernatants); format: cell-based; conditions: Phe 20 mM, peptide 1 mM, n = 3
# Method: STC-1 cells supplied by ATCC (ATCC CRL-3254, Manassas, VA, USA) were cultured in Dulbecco’s Modified Eagle’s Medium (ATCC, Manassas, VA, USA) supplemented with 100 U/mL penicillin, 100 mg/L streptomycin, 0.25 μg/mL amphotericin (Lonza Group, Basel, Switzerland), and 10% fetal bovine serum (ATCC, Manassas, VA, USA). Cells were incubated at 37 °C in a 5% CO2 humidified atmosphere, and once they reached 80% confluence, they were trypsinized and seeded according to each cell study. The experiments were performed from passage numbers 31–35.
# as §3
# (§4) After hormonal secretion studies, GLP-1_7–36NH2 was measured in the supernatants of cells or organoids in duplicate with the commercial immunoassay Glucagon-Like Peptide-1 Active ELISA (Merck KGaA, Darmstadt, Germany), according to the manufacturer’s instructions.
# CCK gene expression [4] = test: Relative CCK gene expression in organoids (qPCR); format: cell-based, mouse; conditions: peptide 1 mM (induced at 60 min), Phe 20 mM (induced from 30 min), versus control
# Method: as §1, §2
# CCK gene expression [5] = test: Relative CCK gene expression in STC-1 cells (qPCR); format: cell-based; conditions: 60 min, Phe 20 mM
# Method: as §3, §1, §2
# mouse jejunal organoids = test: GLP-1 secretion in mouse jejunal organoids (GLP-1 Active ELISA of supernatants); format: cell-based; conditions: Phe 20 mM, peptide 1 mM, n = 3
# Method: Mouse intestinal organoids (enteroids) were derived from adult intestinal stem cells (ISCs). Intestinal crypts were isolated from the jejunum of male and female wild-type mice following the protocol provided by STEMCELL Technologies. Crypts were cultured at 37 °C until organoids were fully developed (5–7 days). Intestinal organoids were suspended in 10 mL of cold DMEM/F12 (Lonza, Basel, Switzerland), and the crypts were suspended in a mixture (50:50) of Matrigel (Corning, NY, USA) and complete IntestiCult Organoid Growth Medium (STEMCELL Technologies, Vancouver, Canada). This mix was gently placed in the center of each well of a prewarmed 24-well plate until the Matrigel solidified and formed a dome. IntestiCult Organoid Growth Medium (STEMCELL Technologies, Vancouver, Canada) was added, and crypts were cultured at 37 °C and 5% CO2 until organoids were developed. After 7 days, the mouse intestinal organoids were passed following the STEMCELL Technologies protocol. The experiments were performed from passage numbers 1 to 6.
# as §4
# PYY gene expression [6] = test: Relative PYY gene expression in organoids (qPCR); format: cell-based, mouse; conditions: organoids, 10, 30, 60 min; EWD 2 mg/mL, Phe 20 mM, peptide 1 mM
# Method: as §1, §2
# STC-1 cells [7] = conditions: earlier screening in STC-1; ref authors' previous study (number not given); cited from earlier work
# Method: Later, other authors, using the enteroendocrine cell line STC-1, have related the GLP-1-inducing effect to peptides of molecular mass between […], and it was shown that peptides present a greater induc ... || There is little information about the structural features necessary to induce secretion by enteroendocrine cells of GLP-1. The organoid cellular media collected at 60 min were analyzed by HPLC–MS/MS in order to assess the possible proteolysis of the assayed peptides during the incubation. The small intestine brush border has different enzymes, oligopeptidases, lipases, and carbohydrases that contribute to nutrient hydrolysis and absorption. Other authors have described that enterocytes present in mouse intestinal organoids have mature brush borders, with the presence of their typical enzymes, ...
# [8] = system: mouse intestinal organoids
# Method: On the day of the experiment, the medium was discarded, and the Matrigel was removed with cold PBS. Next, the organoids were centrifuged for 3 min at 300 × g, the medium was discarded, and after three washes, the organoids were resuspended in saline buffer (20 mM HEPES 1 M, 1 mM glucose, 140 mM NaCl, 4.5 mM KCl, 1.2 mM CaCl2, 1.2 mM MgCl2, 0.1% BSA, pH 7.4). The organoids were incubated for 40 min at 37 °C in this buffer. These organoids were resuspended in a new saline buffer and transferred to 96-well plates at a 60 organoids per well-ratio. The samples (EWD at 2 mg/mL, Phe at 20 mM, and synthetic peptide at 1 mM) were diluted in saline buffer, added to the well, and assayed in triplicate. […] After 10, 30, and 60 min, the plate was centrifuged for 3 min at 300 × g, supernatants were collected, organoids were lysed with QIAzol (Qiagen, Hilden, Germany), and samples were stored at −80 °C for further analysis.
# The percentage of each sequence was calculated relative to the total area in each sample.
compound,measurement,setting,value
"N[C@@H](Cc1ccccc1)C(=O)O [Phe, Phenylalanine]",Relative proglucagon gene expression,[1],1.8 fold change
same,"p-IRS expression versus control, in words",p-IRS,p-IRS overexpression at all time points
same,PYY gene overexpression,PYY gene expression [2],2 fold
same,"GLP-1 release in STC-1 cells versus control, in words","STC-1 cells [3]; 10, 30 and 60 min, EWD 2 mg/mL",only reached significance after incubation with the peptide or Phe for 60 min
same,GLP-1 induced in STC-1 cells,"STC-1 cells [3]; HEPES buffer pH 7.4, time not printed at the place (60 min by b40), ELISA, mean ± SEM",416.6 ± 40.1 pM
same,"CCK gene expression, maximum fold change",CCK gene expression [4],2.8 fold change
same,CCK gene overexpression,CCK gene expression [5],4 fold
same,"GLP-1 release in organoids versus control, in words","mouse jejunal organoids; 10, 30 and 60 min, EWD 2 mg/mL",faster GLP-1 induction was observed in the case of Phe (10 min)
same,GLP-1 release in organoids,"mouse jejunal organoids; 60 min, 60 organoids per well in saline buffer pH 7.4, 37 °C, ELISA, mean ± SEM",43.7 ± 1 pM
same,"PYY gene expression versus control, in words",PYY gene expression [6],"an effect of both the peptide and Phe was observed at 10 min, with Phe keeping the increased expression at 30 min"
"IRGCRL [124IRGCRL129, hexapeptide, shorter form of 123WIRGCRL129 found in organoid supernatants]","GLP-1 secretion in STC-1 cells, in words",STC-1 cells [7],"induce GLP-1 in STC-1, although at lower levels than the tryptophan-containing precursor peptide"
WARGCRL [WARGCRL],"Susceptibility to peptidases in organoids, in words",[8],most susceptible sequences to the action of peptidases
WIRACRL [WIRACRL],"Susceptibility to peptidases in organoids, in words",[8],most susceptible sequences to the action of peptidases
WIRGARL [WIRGARL],"Susceptibility to peptidases in organoids, in words",[8],most susceptible sequences to the action of peptidases
